# Results published in US7799821B2, “Therapeutic compounds” (Allergan, Inc., priority 2004, dated 2010).
# Like-named read-outs stand apart in the source and are kept apart here.
# Tests used:
# hEP4/Gqs5 = molecular target: T1, hEP4/Gqs5 (Homo sapiens, UniProt P35408); experiment: FLIPR calcium signal, hEP4; type: cell-based; details: for EC50: unit inferred, read-out: EP4 data flipr EC50
# T1 construct: expressed in transfected cells; host or cells: HEK-293(EBNA)
# Summary of the method: (§1)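 HEK-293(EBNA) cells stably expressing each human prostanoid receptor (EP2 and EP3A coupled via Gqs5/Gqi5 chimeras) were loaded with Fluo-4 AM, and peak calcium fluorescence was measured on FLIPR at 37° C. Compounds were tested at 10^−5 M or from 10^−11 to 10^−5 M in duplicate, n≥3, with response expressed relative to buffer and standard agonist controls.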
# hIP = molecular target: T2, hIP (Homo sapiens, UniProt P43119); experiment: FLIPR calcium signal, hIP; type: cell-based; details: for EC50: read-out: Other Receptors EC50 hIP
# T2 construct: expressed in transfected cells; host or cells: HEK-293(EBNA)
# Method: (§2) HEK-293(EBNA) cells, stably expressing one type or subtype of recombinant human prostaglandin receptors (prostaglandin receptors expressed: hDP/Gqs5; hEP1; hEP2/Gqs5; hEP3A/Gqi5; hEP4/Gqs5; hFP; hIP; hTP), were cultured in 100 mm culture dishes in high-glucose DMEM medium containing 10% fetal bovine serum, 2 mM 1-glutamine, 250 μg/ml geneticin (G418) and 200 μg/ml hygromycin B as selection markers, and 100 units/ml penicillin G, 100 μg/ml streptomycin and 0.25 μg/ml amphotericin B. • (b) Calcium Signal Studies on the FLIPR™
# (§3) Cells were seeded at a density of 5×10^4 cells per well in Biocoat® Poly-D-lysine-coated black-wall, clear-bottom 96-well plates (Becton-Dickinson) and allowed to attach overnight in an incubator at 37° C. Cells were then washed two times with HBSS-HEPES buffer (Hanks Balanced Salt Solution without bicarbonate and phenol red, 20 mM HEPES, pH 7.4) using a Denley Cellwash plate washer (Labsystems). After 45 minutes of dye-loading in the dark, using the calcium-sensitive dye Fluo-4 AM at a final concentration of 2 μM, plates were washed four times with HBSS-HEPES buffer to remove excess dye leaving 100 μl in each well. Plates were re-equilibrated to 37° C. for a few minutes.
# (§4) Cells were excited with an Argon laser at 488 nm, and emission was measured through a 510-570 nm bandwidth emission filter (FLIPR™, Molecular Devices, Sunnyvale, Calif.). Drug solution was added in a 50 μl volume to each well to give the desired final concentration. The peak increase in fluorescence intensity was recorded for each well. On each plate, four wells each served as negative (HBSS-HEPES buffer) and positive controls (standard agonists: BW245C (hDP); PGE2 (hEP1; hEP2/Gqs5; hEP3A/Gqi5; hEP4/Gqs5); PGF2α (hFP); carbacyclin (hIP); U-46619 (hTP), depending on receptor). The peak fluorescence change in each drug-containing well was then expressed relative to the controls.
# (§5) Compounds were tested in a high-throughput (HTS) or concentration-response (CoRe) format. In the HTS format, forty-four compounds per plate were examined in duplicates at a concentration of 10^−5 M. To generate concentration-response curves, four compounds per plate were tested in duplicates in a concentration range between 10^−5 and 10^−11 M. The duplicate values were averaged. In either, HTS or CoRe format each compound was tested on at least 3 separate plates using cells from different passages to give an n≧3.
# human EP2 receptors = molecular target: T3, human EP2 receptors (Homo sapiens, UniProt P43116); experiment: Competition radioligand binding ([3H]PGE2), EP2
# T3 construct: expressed in transfected cells; host or cells: HEK 293
# hEP2/Gqs5 = molecular target: T4, hEP2/Gqs5 (Homo sapiens, UniProt P43116); experiment: FLIPR calcium signal, hEP2; type: cell-based
# T4 construct: expressed in transfected cells; host or cells: HEK-293(EBNA)
# Summary of the method: as §1
# hDP/Gqs5 = molecular target: T5, hDP/Gqs5 (Homo sapiens, UniProt Q13258); experiment: FLIPR calcium signal, hDP; type: cell-based; details: read-out: Other Receptors EC50 hDP
# T5 construct: expressed in transfected cells; host or cells: HEK-293(EBNA)
# T5 sequence (Q13258 1-359): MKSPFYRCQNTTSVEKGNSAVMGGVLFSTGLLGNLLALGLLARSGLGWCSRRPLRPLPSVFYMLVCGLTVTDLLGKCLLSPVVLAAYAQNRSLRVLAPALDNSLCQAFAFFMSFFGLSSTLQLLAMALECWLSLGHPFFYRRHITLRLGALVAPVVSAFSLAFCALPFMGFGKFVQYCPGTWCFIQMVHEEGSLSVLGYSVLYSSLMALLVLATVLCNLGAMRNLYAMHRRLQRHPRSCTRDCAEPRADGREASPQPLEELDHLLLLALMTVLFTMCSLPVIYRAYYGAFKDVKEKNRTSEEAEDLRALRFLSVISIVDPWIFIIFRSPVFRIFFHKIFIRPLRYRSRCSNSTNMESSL
# Method: as §2, §3, §4, §5
# [1] = unit inferred, read-out: EP2 data Ki
# [2] = unit inferred, other columns of the table in nM, read-out: EP2 data flipr EC50
# [3] = pH 6.0, unit inferred, read-out: EP2 data Ki pH 6.0
# T1 sequence (P35408 whole entry): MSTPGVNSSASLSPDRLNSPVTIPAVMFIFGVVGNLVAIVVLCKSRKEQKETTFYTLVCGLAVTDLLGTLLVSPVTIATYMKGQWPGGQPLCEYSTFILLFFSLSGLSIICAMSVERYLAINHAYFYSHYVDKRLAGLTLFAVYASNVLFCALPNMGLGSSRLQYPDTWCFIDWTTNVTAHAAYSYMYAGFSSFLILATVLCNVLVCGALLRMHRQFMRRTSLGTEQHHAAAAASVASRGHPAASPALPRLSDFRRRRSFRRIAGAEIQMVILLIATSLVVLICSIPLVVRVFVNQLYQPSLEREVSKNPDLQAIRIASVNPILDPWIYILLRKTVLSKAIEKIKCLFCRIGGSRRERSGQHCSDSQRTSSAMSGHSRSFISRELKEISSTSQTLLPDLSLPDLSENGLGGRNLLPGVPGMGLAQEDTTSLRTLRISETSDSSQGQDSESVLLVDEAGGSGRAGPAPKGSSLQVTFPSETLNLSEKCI
# T2 sequence (P43119 whole entry): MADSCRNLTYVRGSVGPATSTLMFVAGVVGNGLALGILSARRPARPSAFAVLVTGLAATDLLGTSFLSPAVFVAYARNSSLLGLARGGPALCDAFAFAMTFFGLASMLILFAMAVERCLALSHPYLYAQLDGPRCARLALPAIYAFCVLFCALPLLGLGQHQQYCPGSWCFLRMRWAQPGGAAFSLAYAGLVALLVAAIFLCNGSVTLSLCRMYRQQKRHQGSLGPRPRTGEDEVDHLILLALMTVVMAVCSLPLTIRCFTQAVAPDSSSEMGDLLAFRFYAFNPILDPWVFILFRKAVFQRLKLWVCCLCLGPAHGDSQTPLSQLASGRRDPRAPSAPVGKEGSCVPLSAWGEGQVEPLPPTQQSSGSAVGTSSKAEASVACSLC
# T4 sequence (P43116 whole entry): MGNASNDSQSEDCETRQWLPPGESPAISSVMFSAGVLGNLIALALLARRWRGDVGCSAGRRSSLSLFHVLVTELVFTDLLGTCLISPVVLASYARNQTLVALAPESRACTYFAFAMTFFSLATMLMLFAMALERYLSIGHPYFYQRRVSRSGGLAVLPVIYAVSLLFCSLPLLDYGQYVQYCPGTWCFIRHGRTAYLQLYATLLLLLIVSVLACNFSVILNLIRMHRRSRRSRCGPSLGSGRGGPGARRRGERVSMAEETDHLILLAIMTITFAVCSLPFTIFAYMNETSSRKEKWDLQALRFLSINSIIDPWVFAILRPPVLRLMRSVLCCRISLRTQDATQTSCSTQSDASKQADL
# T3 sequence (P43116 whole entry): as above
Structure (SMILES),"Ca2+ Signal-EC50 (nM) EP4 (hEP4/Gqs5; Table 3, third part)","Ca2+ Signal-EC50 (nM) IP (hIP; Table 3, third part)","Ki (human EP2 receptors; Table 3, third part, read-out: BINDING-Ki (nM) EP2) [nM]","EC50 (hEP2/Gqs5; Table 3, third part, value outside parentheses, read-out: Ca2+ Signal-EC50 (nM) EP2) [nM]",EC50 (hEP4/Gqs5) [nM],EC50 (hDP/Gqs5) [nM],Ki (human EP2 receptors; [1]) [nM],EC50 (hEP2/Gqs5; [2]) [nM],Ki (human EP2 receptors; [3]) [nM],EC50 (hIP) [nM]
CCCCCC(C)c1ccc([C@@H]2[C@@H](C/C=C\CCCC(=O)O)[C@H](C#N)C[C@H]2C)cc1 (some centres unmarked),not active,not active,1250,34,–,–,–,–,–,–
CCCCCC(=O)c1ccc(N2C(=O)CC[C@@H]2CCCc2ccc(C(=O)O)s2)cc1,–,–,–,–,> 10000,7700,31,16,–,–
CC(C)(C)c1ccc(N2C(=O)CC[C@@H]2COCc2ccc(C(=O)O)o2)cc1,–,–,–,–,> 10000,1920,4000,442,189,–
CC(C)(C)c1ccc(N2C(=O)CC[C@@H]2COCc2ccc(C(=O)O)s2)cc1,–,–,–,–,> 10000,2320,501,1340,27,–
CC(C)(C)c1ccc(N2C(=O)CC[C@@H]2CCCCCCC(=O)O)cc1,–,–,–,–,> 10000,> 10000,> 10000,4120,–,–
"CCCCCC(O)c1ccc(N2C(=O)CC[C@@H]2COCc2ccc(C(=O)O)s2)cc1 (single isomer, unassigned) [drawing 148]",–,–,–,–,> 10000,7750,345,62,–,–
"CCCCCC(O)c1ccc(N2C(=O)CC[C@@H]2COCc2ccc(C(=O)O)s2)cc1 (single isomer, unassigned) [drawing 176]",–,–,–,–,> 10000,7750,345,62,–,–
"CCCCCC(O)c1ccc(N2C(=O)CC[C@@H]2COCc2ccc(C(=O)O)s2)cc1 (single isomer, unassigned) [drawing 177]",–,–,–,–,> 10000,6800,116,15,–,–

# More lines, now with the values ahead:
"Ca2+ Signal-EC50 (nM) EP4 (hEP4/Gqs5; Table 3, third part)","Ca2+ Signal-EC50 (nM) IP (hIP; Table 3, third part)","Ki (human EP2 receptors; Table 3, third part, read-out: BINDING-Ki (nM) EP2) [nM]","EC50 (hEP2/Gqs5; Table 3, third part, value outside parentheses, read-out: Ca2+ Signal-EC50 (nM) EP2) [nM]",EC50 (hEP4/Gqs5) [nM],EC50 (hDP/Gqs5) [nM],Ki (human EP2 receptors; [1]) [nM],EC50 (hEP2/Gqs5; [2]) [nM],Ki (human EP2 receptors; [3]) [nM],EC50 (hIP) [nM],Structure (SMILES)
–,–,–,–,> 10000,296,15,1.6,–,–,"CCCCCC(O)c1ccc(N2C(=O)CC[C@@H]2CCCc2ccc(C(=O)O)s2)cc1 (single isomer, unassigned) [drawing 151]"
–,–,–,–,–,6830,229,134,–,–,"CCCCCCC(O)c1ccc(N2C(=O)CC[C@@H]2COCc2ccc(C(=O)O)s2)cc1 (single isomer, unassigned) [drawing 152]"
–,–,–,–,–,37,12,–,–,–,"CCCCCCC(O)c1ccc(N2C(=O)CC[C@@H]2CCCc2ccc(C(=O)O)s2)cc1 (single isomer, unassigned) [drawing 155]"
–,–,–,–,–,106,8,5,–,> 10000,"CCCCCCC(O)c1ccc(N2C(=O)CC[C@@H]2CCCc2ccc(C(=O)O)s2)cc1 (single isomer, unassigned) [drawing 156]"
–,–,–,–,> 10000,812,21,6,–,–,"CCCCCC(O)c1ccc(N2C(=O)CC[C@@H]2CCCc2ccc(C(=O)O)s2)cc1 (single isomer, unassigned) [drawing 178]"
–,–,–,–,> 10000,296,15,1.6,–,–,"CCCCCC(O)c1ccc(N2C(=O)CC[C@@H]2CCCc2ccc(C(=O)O)s2)cc1 (single isomer, unassigned) [drawing 179]"
–,–,–,–,–,6830,229,134,–,–,"CCCCCC(O)c1ccc(N2C(=O)CC[C@@H]2CCCc2ccc(C(=O)O)s2)cc1 (single isomer, unassigned) [drawing 180]"
–,–,–,–,–,37,12,16,–,–,"CCCCCCC(O)c1ccc(N2C(=O)CC[C@@H]2CCCc2ccc(C(=O)O)s2)cc1 (single isomer, unassigned) [drawing 183]"
–,–,–,–,–,106,8,5,–,> 10000,"CCCCCCC(O)c1ccc(N2C(=O)CC[C@@H]2CCCc2ccc(C(=O)O)s2)cc1 (single isomer, unassigned) [drawing 184]"
–,–,–,–,–,1230,23,5,–,–,CCCCCC(O)c1ccc(N2C(=O)CC[C@@H]2CCCc2ccc(C(=O)O)s2)cc1 (some centres unmarked) [drawing 145]
–,–,–,–,–,1230,23,5,–,–,CCCCCC(O)c1ccc(N2C(=O)CC[C@@H]2CCCc2ccc(C(=O)O)s2)cc1 (some centres unmarked) [drawing 173]
